{"source": "paper PMC2910436", "about": "(Cell, 2010)", "key": {"EntA": {"molecular_target": "EntA (Escherichia coli, UniProt P15047)", "sequence (P15047 whole entry)": "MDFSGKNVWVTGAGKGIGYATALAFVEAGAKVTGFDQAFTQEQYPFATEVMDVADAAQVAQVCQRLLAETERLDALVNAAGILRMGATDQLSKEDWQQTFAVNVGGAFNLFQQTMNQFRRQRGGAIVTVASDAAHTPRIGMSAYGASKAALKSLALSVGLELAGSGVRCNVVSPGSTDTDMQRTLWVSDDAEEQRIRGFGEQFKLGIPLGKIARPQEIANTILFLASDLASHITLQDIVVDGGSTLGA", "assay": "NADH formation at […] nm", "format": "biochemical", "conditions": "co-substrate 2,3-diDHBA"}, "BDH2 (DHRS6)": {"molecular_target": "BDH2 (DHRS6) (Mus musculus, UniProt Q8JZV9)", "sequence (Q8JZV9 whole entry)": "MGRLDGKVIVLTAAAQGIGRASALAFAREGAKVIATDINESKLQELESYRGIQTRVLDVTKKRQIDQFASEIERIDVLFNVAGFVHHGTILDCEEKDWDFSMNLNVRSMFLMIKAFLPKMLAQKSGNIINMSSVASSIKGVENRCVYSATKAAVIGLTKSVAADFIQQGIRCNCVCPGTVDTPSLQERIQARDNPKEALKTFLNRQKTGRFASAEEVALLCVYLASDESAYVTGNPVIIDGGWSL", "assay": "NADH formation at […] nm", "format": "biochemical", "conditions": "co-substrate 2,3-diDHBA"}}, "data": [{"molecule": "NC(=O)c1ccc[n+]([C@@H]2O[C@H](COP(=O)(O)OP(=O)(O)OC[C@H]3O[C@@H](n4cnc5c(N)ncnc54)[C@H](O)[C@@H]3O)[C@@H](O)[C@H]2O)c1", "note": "[NAD^+]", "values": [{"measurement": "NADH formation at 340 nm", "setting": "EntA", "result": "wild-type EntA and BDH2 proteins, but not their mutant derivatives, catalyzed the conversion of NAD"}, {"measurement": "NADH formation at 340 nm", "setting": "BDH2 (DHRS6)", "result": "wild-type EntA and BDH2 proteins, but not their mutant derivatives, catalyzed the conversion of NAD"}]}]}
